This note sets out measurements from article PMC10322970, “Modular synthesis of clickable peptides via late-stage maleimidation on C(7)-H tryptophan” (Nature Communications, 2023).

Structures are written as SMILES.

Data set [1] in a line: Rh(III)-catalysed intramolecular C(7)-H maleimidation of N-pivaloyl Trp (oxidative Heck-type C-C bond, indole C7 to maleimide CH): [RhCp*Cl2]2 10 mol%, AgNTf2 40 mol%, Ag2O 1.5 eq. The settings on record: DCM, 12.0 mM, 80.0 °C, 24.0 h.
The test system of data set [2] is MCF-7 cells. As to the kind of experiment: Cytotoxicity by MTT assay, MCF-7. As to conditions: MCF-7 (integrin αvβ3-negative), 0–40 μM, 36 h.
Data set [3] has as its system U87MG cells. As to the kind of experiment: Cytotoxicity by MTT assay, U87MG. As to conditions: U87MG (integrin αvβ3-positive), 0–40 μM, 36 h. In general terms: Tetrazolium assays rely on reduction of a dye to a coloured formazan, in cell work by metabolically active cells.
Data set [4] deals with HeLa cells. As to the kind of experiment: Cytotoxicity by MTT assay, HeLa. As to conditions: HeLa (integrin αvβ3-negative), 0–40 μM, 36 h.
Data set [5] deals with MIHA cells. As to the kind of experiment: Cytotoxicity by MTT assay, MIHA. As to conditions: MIHA normal cells, 0–40 μM, 36 h.
Data set [6] deals with LO2 cells. As to the kind of experiment: Cytotoxicity by MTT assay, LO2. As to conditions: LO2 normal cells, 0–40 μM, 36 h.
For data set [7], the system named is A549 cells. As to the kind of experiment: Cytotoxicity by MTT assay, A549. As to conditions: A549 (integrin αvβ3-positive), 0–40 μM, 36 h.
The target of data set [8] is integrin αvβ5 (Homo sapiens, UniProt P06756+P18084). As to the kind of experiment: SPR binding to immobilised integrin αvβ5. The settings on record: for kon: read-out: ka.
In data set [9] the target is integrin αvβ3 (Homo sapiens, UniProt P05106+P06756). As to the kind of experiment: SPR binding to immobilised integrin αvβ3. The settings on record: for kon: read-out: ka. Background: In SPR one partner is held on a chip, and binding of the other changes the refractive index at the surface.
Data set [10] has as its target integrin α5β1 (Homo sapiens, UniProt P05556+P08648). As to the kind of experiment: SPR binding to immobilised integrin α5β1. The settings on record: for kon: read-out: ka.

For orientation: Kd means the constant that tells how readily two partners part at equilibrium.

Chain of integrin αvβ3 (P06756 31-1048): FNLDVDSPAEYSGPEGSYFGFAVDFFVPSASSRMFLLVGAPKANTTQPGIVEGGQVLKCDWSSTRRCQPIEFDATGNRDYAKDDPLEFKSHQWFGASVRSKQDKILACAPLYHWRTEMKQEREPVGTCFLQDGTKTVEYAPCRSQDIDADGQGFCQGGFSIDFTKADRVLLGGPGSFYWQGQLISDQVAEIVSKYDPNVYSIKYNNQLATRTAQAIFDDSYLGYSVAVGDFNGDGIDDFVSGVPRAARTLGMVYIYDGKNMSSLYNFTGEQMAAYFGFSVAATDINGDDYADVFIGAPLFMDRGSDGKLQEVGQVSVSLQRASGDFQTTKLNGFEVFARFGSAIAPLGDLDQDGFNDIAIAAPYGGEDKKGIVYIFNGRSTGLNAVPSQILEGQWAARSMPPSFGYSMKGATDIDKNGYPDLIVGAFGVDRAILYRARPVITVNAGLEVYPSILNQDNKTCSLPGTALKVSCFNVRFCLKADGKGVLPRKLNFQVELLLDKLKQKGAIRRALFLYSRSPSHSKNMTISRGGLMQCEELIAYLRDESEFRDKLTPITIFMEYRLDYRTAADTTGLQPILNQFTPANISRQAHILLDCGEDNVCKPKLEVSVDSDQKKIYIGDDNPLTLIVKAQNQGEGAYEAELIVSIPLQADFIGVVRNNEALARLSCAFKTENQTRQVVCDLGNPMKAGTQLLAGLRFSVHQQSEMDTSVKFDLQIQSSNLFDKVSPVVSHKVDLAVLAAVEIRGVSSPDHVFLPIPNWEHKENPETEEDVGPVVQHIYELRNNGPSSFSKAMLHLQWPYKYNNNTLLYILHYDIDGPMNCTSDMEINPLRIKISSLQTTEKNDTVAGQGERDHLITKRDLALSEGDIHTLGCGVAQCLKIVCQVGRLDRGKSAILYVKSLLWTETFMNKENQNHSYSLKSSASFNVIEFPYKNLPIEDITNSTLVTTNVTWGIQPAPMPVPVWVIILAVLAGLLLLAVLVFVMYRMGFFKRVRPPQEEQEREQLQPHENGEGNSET
Chain of integrin αvβ3 (P05106 27-788): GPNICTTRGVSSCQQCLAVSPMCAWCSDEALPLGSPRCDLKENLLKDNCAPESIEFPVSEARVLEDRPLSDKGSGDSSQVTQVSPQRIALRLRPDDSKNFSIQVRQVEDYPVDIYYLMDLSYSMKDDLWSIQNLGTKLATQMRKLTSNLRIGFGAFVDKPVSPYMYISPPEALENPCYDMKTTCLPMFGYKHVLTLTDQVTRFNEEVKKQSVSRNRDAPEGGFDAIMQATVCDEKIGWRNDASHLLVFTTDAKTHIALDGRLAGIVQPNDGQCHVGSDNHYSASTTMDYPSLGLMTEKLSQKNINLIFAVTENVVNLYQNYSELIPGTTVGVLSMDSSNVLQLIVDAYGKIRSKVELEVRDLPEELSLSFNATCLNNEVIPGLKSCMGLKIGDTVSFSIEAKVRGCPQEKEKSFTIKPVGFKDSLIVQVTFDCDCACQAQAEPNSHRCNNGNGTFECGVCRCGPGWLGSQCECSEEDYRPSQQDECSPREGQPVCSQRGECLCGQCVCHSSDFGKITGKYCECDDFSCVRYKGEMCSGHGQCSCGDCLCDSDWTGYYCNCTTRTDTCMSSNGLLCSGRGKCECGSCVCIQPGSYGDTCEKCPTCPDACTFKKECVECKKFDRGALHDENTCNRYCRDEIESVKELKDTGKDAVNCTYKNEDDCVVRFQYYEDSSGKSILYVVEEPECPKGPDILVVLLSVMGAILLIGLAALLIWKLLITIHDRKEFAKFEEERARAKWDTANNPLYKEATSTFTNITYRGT
Chain of integrin αvβ5 (P06756 31-1048): as the sequence (P06756 31-1048) above
Chain of integrin αvβ5 (P18084 24-799): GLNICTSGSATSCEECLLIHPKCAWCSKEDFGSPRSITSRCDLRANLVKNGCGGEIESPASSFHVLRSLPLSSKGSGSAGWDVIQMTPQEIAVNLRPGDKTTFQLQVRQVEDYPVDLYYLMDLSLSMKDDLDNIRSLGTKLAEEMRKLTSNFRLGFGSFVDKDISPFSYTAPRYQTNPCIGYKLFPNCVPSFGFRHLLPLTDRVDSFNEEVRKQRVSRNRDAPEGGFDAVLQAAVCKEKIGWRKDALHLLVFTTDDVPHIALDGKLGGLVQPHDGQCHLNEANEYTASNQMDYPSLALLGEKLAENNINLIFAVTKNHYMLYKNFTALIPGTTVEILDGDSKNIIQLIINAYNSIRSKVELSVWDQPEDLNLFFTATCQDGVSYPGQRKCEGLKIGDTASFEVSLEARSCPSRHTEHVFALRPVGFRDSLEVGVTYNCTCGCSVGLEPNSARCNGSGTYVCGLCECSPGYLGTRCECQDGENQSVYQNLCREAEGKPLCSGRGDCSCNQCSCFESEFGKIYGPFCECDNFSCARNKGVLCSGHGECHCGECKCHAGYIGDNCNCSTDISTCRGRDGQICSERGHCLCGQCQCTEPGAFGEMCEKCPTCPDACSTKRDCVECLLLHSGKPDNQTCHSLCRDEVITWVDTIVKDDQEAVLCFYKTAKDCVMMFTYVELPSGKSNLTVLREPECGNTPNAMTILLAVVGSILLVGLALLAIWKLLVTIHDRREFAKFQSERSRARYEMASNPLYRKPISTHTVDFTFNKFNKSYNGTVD
Chain of integrin α5β1 (P08648 42-1049): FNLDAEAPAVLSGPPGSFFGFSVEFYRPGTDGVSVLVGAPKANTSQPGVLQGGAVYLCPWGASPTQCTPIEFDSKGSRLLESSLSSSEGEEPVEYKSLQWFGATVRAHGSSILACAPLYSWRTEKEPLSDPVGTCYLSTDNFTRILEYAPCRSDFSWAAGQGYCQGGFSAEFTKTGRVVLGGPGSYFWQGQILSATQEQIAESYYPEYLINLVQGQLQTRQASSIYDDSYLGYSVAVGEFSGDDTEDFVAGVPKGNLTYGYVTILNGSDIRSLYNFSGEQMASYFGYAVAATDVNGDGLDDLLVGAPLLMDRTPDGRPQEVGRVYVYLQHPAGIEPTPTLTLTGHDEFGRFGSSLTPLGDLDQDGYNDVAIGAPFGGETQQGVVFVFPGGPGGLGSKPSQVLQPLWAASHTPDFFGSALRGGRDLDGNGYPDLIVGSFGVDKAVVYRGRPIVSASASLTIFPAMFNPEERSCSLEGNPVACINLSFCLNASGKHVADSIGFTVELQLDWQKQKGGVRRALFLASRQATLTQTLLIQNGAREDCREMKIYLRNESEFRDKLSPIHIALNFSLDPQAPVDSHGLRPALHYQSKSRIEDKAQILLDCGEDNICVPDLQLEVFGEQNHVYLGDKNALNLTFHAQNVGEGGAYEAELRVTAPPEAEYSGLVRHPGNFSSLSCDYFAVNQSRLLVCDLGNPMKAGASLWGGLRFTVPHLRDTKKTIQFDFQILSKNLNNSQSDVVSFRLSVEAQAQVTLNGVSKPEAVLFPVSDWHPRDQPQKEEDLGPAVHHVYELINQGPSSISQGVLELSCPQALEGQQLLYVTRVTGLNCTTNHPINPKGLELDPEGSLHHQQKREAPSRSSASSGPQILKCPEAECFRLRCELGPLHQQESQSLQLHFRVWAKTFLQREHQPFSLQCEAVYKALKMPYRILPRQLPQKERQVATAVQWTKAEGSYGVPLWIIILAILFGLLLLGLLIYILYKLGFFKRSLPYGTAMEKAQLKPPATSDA
Chain of integrin α5β1 (P05556 21-798): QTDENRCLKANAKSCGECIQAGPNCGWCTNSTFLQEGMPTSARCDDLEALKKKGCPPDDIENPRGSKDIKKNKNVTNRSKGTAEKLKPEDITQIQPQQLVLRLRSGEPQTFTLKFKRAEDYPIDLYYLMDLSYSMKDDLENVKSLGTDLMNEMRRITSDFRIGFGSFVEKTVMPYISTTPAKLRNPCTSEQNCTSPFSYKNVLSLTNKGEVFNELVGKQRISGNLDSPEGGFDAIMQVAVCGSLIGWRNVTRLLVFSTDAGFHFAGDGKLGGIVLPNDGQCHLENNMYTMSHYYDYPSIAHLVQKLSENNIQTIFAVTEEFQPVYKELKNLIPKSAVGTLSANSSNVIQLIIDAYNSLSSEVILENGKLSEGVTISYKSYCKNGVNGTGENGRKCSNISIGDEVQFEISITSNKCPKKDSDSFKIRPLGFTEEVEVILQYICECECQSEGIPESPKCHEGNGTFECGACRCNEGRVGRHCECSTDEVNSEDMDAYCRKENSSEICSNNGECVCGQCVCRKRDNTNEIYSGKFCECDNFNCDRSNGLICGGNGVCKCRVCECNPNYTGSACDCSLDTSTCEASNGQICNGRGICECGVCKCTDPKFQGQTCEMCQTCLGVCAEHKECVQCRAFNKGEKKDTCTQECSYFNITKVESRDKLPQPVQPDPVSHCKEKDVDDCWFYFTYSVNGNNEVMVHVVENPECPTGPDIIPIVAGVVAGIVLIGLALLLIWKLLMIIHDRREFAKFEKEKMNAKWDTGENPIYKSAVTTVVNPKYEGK

The compound `COC(=O)[C@@H]1Cc2cn(C(=O)C(C)(C)C)c3c(cccc23)C2=CC(=O)N(CCCCCCCCCCC(=O)N1)C2=O` [11-maleimidoundecanoyl-Trp(Piv)-OMe] showed a ring closure, isolated yield in data set [1] (from COC(=O)[C@H](Cc1cn(C(=O)C(C)(C)C)c2ccccc12)NC(=O)CCCCCCCCCCN1C(=O)C=CC1=O, 22-membered ring) of 22%.
For the compound `CC[C@H](C)[C@@H]1NC(=O)[C@H](C(C)(C)C)NC(=O)[C@@H](NC(=O)OC(C)(C)C)Cc2cn(C(=O)C(C)(C)C)c3c(cccc23)C2=CC(=O)N(CCCC[C@@H](C(=O)OC)NC(=O)CNC1=O)C2=O` [Boc-Trp(Piv)-Tle-Ile-Gly-Lys(Nε-maleimide)-OMe], in data set [1] (from CC[C@H](C)[C@H](NC(=O)[C@@H](NC(=O)[C@H](Cc1cn(C(=O)C(C)(C)C)c2ccccc12)NC(=O)OC(C)(C)C)C(C)(C)C)C(=O)NCC(=O)N[C@@H](CCCCN1C(=O)C=CC1=O)C(=O)OC, 26-membered ring), the ring closure, isolated yield is 34%.
The compound `CC[C@H](C)[C@@H]1NC(=O)[C@@H](NC(=O)OC(C)(C)C)CCCCN2C(=O)C=C(C2=O)c2cccc3c(cn(C(=O)C(C)(C)C)c23)C[C@@H](C(=O)N[C@H](C(=O)OC)[C@@H](C)CC)NC(=O)CNC(=O)[C@H](C)NC1=O` [Boc-Lys(Nε-maleimide)-Ile-Ala-Gly-Trp(Piv)-Ile-OMe] returned a ring closure, isolated yield in data set [1] (from CC[C@H](C)[C@H](NC(=O)[C@H](CCCCN1C(=O)C=CC1=O)NC(=O)OC(C)(C)C)C(=O)N[C@@H](C)C(=O)NCC(=O)N[C@@H](Cc1cn(C(=O)C(C)(C)C)c2ccccc12)C(=O)N[C@H](C(=O)OC)[C@@H](C)CC, 26-membered ring) of 32%.
For the compound `COC(=O)[C@@H]1Cc2cn(C(=O)C(C)(C)C)c3c(cccc23)C2=CC(=O)N(CCCC[C@H](NC(=O)OC(C)(C)C)C(=O)N1)C2=O` [Boc-Lys(Nε-maleimide)-Trp(Piv)-OMe], in data set [1] (from COC(=O)[C@H](Cc1cn(C(=O)C(C)(C)C)c2ccccc12)NC(=O)[C@H](CCCCN1C(=O)C=CC1=O)NC(=O)OC(C)(C)C, 17-membered ring), the ring closure, isolated yield is 0%.
For the compound `COC(=O)[C@@H]1Cc2c[nH]c3c(cccc23)C2C(=O)N(CCCC[C@H](N)C(=O)N[C@@H](CCCNC(=N)N)C(=O)NCC(=O)N[C@@H](CC(=O)O)C(=O)NCC(=O)N1)C(=O)C2SCCC(=O)NCC(=O)N[C@@H](Cc1ccccc1)C(=O)N[C@@H](CC(C)C)C(=O)NCC(=O)N[C@H]1C[C@H](O[C@H]2C[C@](O)(C(=O)CO)Cc3c(O)c4c(c(O)c32)C(=O)c2c(OC)cccc2C4=O)O[C@@H](C)[C@H]1O` (stereo partly drawn) [RGD-GFLG-DOX], the “cytotoxicity (in words)” value is reported as “lower cytotoxicity” in data set [2]; “stronger cytotoxicity than DOX” in data set [3]; “lower cytotoxicity” in [4]; “lower cytotoxicity” in [5]; “lower cytotoxicity” in [6]; “stronger cytotoxicity than DOX” in [7].
With `COC(=O)[C@@H]1Cc2cn(C(=O)C(C)(C)C)c3c(cccc23)C2=CC(=O)N(CCC(=O)N[C@@H](CC(=O)OC(C)(C)C)C(=O)N[C@@H](C)C(=O)N[C@@H](C(C)C)C(=O)NCC(=O)N1)C2=O` [3-maleimidopropionyl-Asp(OtBu)-Ala-Val-Gly-Trp(Piv)-OMe], the ring closure, isolated yield in data set [1] (from COC(=O)[C@H](Cc1cn(C(=O)C(C)(C)C)c2ccccc12)NC(=O)CNC(=O)[C@@H](NC(=O)[C@H](C)NC(=O)[C@H](CC(=O)OC(C)(C)C)NC(=O)CCN1C(=O)C=CC1=O)C(C)C, 26-membered ring) was 43%.
`COC(=O)[C@@H]1Cc2cn(C(=O)C(C)(C)C)c3c(cccc23)C2=CC(=O)N(CCCC[C@H](NC(=O)OC(C)(C)C)C(=O)N[C@@H](C(C)C)C(=O)N[C@@H](Cc3ccccc3)C(=O)NCC(=O)N1)C2=O` [Boc-Lys(Nε-maleimide)-Val-Phe-Gly-Trp(Piv)-OMe] registered a ring closure, isolated yield in data set [1] (from COC(=O)[C@H](Cc1cn(C(=O)C(C)(C)C)c2ccccc12)NC(=O)CNC(=O)[C@H](Cc1ccccc1)NC(=O)[C@@H](NC(=O)[C@H](CCCCN1C(=O)C=CC1=O)NC(=O)OC(C)(C)C)C(C)C, 26-membered ring) of 39%.
As to `COC(=O)[C@@H]1Cc2cn(C(=O)C(C)(C)C)c3c(cccc23)C2=CC(=O)N(CCCCCCCCCCC(=O)NCC(=O)NCC(=O)N1)C2=O` [11-maleimidoundecanoyl-Gly-Gly-Trp(Piv)-OMe], in [1] (from COC(=O)[C@H](Cc1cn(C(=O)C(C)(C)C)c2ccccc12)NC(=O)CNC(=O)CNC(=O)CCCCCCCCCCN1C(=O)C=CC1=O, 28-membered ring), the ring closure, isolated yield came to 38%.
For `COC(=O)[C@@H]1Cc2cn(C(=O)C(C)(C)C)c3c(cccc23)C2=CC(=O)N(CCCCCC(=O)NC3(CCCC3)C(=O)N1)C2=O`, the ring closure, isolated yield in data set [1] (from COC(=O)[C@H](Cc1cn(C(=O)C(C)(C)C)c2ccccc12)NC(=O)C1(NC(=O)CCCCCN2C(=O)C=CC2=O)CCCC1, 20-membered ring) was found to be 0%.
On to `COC(=O)[C@@H]1Cc2c[nH]c3c(cccc23)C2=CC(=O)N(CCCC[C@H](N)C(=O)N[C@@H](CCCNC(=N)N)C(=O)NCC(=O)N[C@@H](CC(=O)O)C(=O)NCC(=O)N1)C2=O` [10a], for which the results for the Kd in data set [8], in data set [9] and in data set [10] were 6.13 µM, 0.675 µM and 8.36 µM, respectively. Also, the kon in [8] came to 12500 M⁻¹ s⁻¹; in data set [9], 42300 M⁻¹ s⁻¹; in [10], 15300 M⁻¹ s⁻¹.
`COC(=O)[C@@H]1Cc2cn(C(=O)C(C)(C)C)c3c(cccc23)C2=CC(=O)N(CCCC[C@H](NC(=O)OC(C)(C)C)C(=O)N[C@@H](C)C(=O)N[C@@H](Cc3ccccc3)C(=O)N[C@@H](CC(C)C)C(=O)NCC(=O)N1)C2=O` [Boc-Lys(Nε-maleimide)-Ala-Phe-Leu-Gly-Trp(Piv)-OMe] gave a ring closure, isolated yield in data set [1] (from COC(=O)[C@H](Cc1cn(C(=O)C(C)(C)C)c2ccccc12)NC(=O)CNC(=O)[C@H](CC(C)C)NC(=O)[C@H](Cc1ccccc1)NC(=O)[C@H](C)NC(=O)[C@H](CCCCN1C(=O)C=CC1=O)NC(=O)OC(C)(C)C, 29-membered ring) of 35%.
`COC(=O)[C@@H]1Cc2cn(C(=O)C(C)(C)C)c3c(cccc23)C2=CC(=O)N(CCCCCC(=O)N[C@@H](C)C(=O)NCC(=O)N1)C2=O` [6-maleimidohexanoyl-Ala-Gly-Trp(Piv)-OMe] gave a ring closure, isolated yield in [1] (from COC(=O)[C@H](Cc1cn(C(=O)C(C)(C)C)c2ccccc12)NC(=O)CNC(=O)[C@H](C)NC(=O)CCCCCN1C(=O)C=CC1=O, 23-membered ring) of 15%.
As to `N=C(N)NCCC[C@@H]1NC(=O)[C@H](CCCCNC(=S)Nc2ccc3c(c2)C(=O)OC32c3ccc(O)cc3Oc3cc(O)ccc32)NC(=O)[C@@H](Cc2ccccc2)NC(=O)[C@H](CC(=O)O)NC(=O)CNC1=O` [10c, cyclo-(RGDfK (FITC)), reference compound], the results for the Kd in data set [8], in [9] and in data set [10] were 4.13 µM, 65.5 µM and 2.76 µM, respectively. In addition, the kon in [8] amounted to 23400 M⁻¹ s⁻¹; in data set [9], 10300 M⁻¹ s⁻¹; in [10] it was 25400 M⁻¹ s⁻¹.
As to `COC(=O)[C@@H]1Cc2cn(C(=O)C(C)(C)C)c3c(cccc23)C2=CC(=O)N(CCCC[C@H](NC(=O)OC(C)(C)C)C(=O)N[C@@H](CCCNC(=N)NS(=O)(=O)c3c(C)c(C)c4c(c3C)CC(C)(C)O4)C(=O)NCC(=O)N[C@@H](CC(=O)OC(C)(C)C)C(=O)NCC(=O)N1)C2=O`, the ring closure, isolated yield in data set [1] (from COC(=O)[C@H](Cc1cn(C(=O)C(C)(C)C)c2ccccc12)NC(=O)CNC(=O)[C@H](CC(=O)OC(C)(C)C)NC(=O)CNC(=O)[C@H](CCCNC(=N)NS(=O)(=O)c1c(C)c(C)c2c(c1C)CC(C)(C)O2)NC(=O)[C@H](CCCCN1C(=O)C=CC1=O)NC(=O)OC(C)(C)C, 29-membered ring) amounted to 32%.
In data set [1] (from CC[C@H](C)[C@H](NC(=O)[C@H](Cc1ccccc1)NC(=O)[C@H](CCC(=O)OC(C)(C)C)NC(=O)CCN1C(=O)C=CC1=O)C(=O)NCC(=O)N[C@@H](Cc1cn(C(=O)C(C)(C)C)c2ccccc12)C(=O)OC, 26-membered ring), `CC[C@H](C)[C@@H]1NC(=O)[C@H](Cc2ccccc2)NC(=O)[C@H](CCC(=O)OC(C)(C)C)NC(=O)CCN2C(=O)C=C(C2=O)c2cccc3c(cn(C(=O)C(C)(C)C)c23)C[C@@H](C(=O)OC)NC(=O)CNC1=O` [3-maleimidopropionyl-Glu(OtBu)-Phe-Ile-Gly-Trp(Piv)-OMe] displayed a ring closure, isolated yield of 35%.
